Assay results taken from US4657924A, “Nafazatrom as a lipoxygenase inhibitor” (priority 1983, dated 1987).

Key:
5-lipoxygenase = 5-lipoxygenase inhibition; format: biochemical; settings: selectively, versus 15- and 12-lipoxygenase
12-lipoxygenase = 12-lipoxygenase inhibition; format: biochemical; settings: these concentrations (>10 μg/ml)
rabbit hearts = test: Rabbit hearts perfused by the method of Langendorff, perfusion pressure
Description: The heart was removed from the rabbits (up to about 2 kg) under Nembutal anaesthesia and cannulas were attached at the aorta and at the a.pulmonalis. To measure the isovolumetric contractions, a silicon rubber balloon filled with liquid was inserted into the left ventricle via the left auricle. The balloon was connected to a liquid sensor (Statham P 23 Db) via a liquid bridge. The perfusion pressure was recorded with a pressure sensor, which was connected to the perfusion system via T-piece before the aorta cannula of the heart. The contraction force and perfusion pressure were recorded with a Gould 2600 S high-speed recorder. The hearts were stimulated electrically at a frequency of 180/minute and a stimulation duration of 5 mseconds.
Perfusion of the hearts was effected with Krebs-Henseleit solution (KH solution), which was gassed with carbogen (95% of O2, 5% of CO2) or with a gas mixture of 2% of O2, 5.6% of CO2 and the remainder N2. The perfusion volume was 20 ml/minute and was adjusted by a roller pump (Desaga, 132100). The nafazatrom and the platelet suspensions (obtained from the same rabbit from which the heart is removed) were added with the aid of infusion pumps (roller pumps, Braun-Melsungen), the solution or suspension being infused at a flow rate of 0.2 or 0.1 ml/minute from an infusion syringe via a Taigon tube and a fine cannula into the inlet tube shortly before the heart. The final concentration of the platelets was 1×10^7 /ml of KH solution. The solution flowing out of the heart (cannula in the a.pulmonalis) was collected periodically, under ice-cooling. To measure the concentrations of thromboxan as TXB2 and of prostacyclin as 6-keto-PGF1^α, determination of which was effected with the aid of radioimmunoassay, aliquot parts by volume were freeze-dried and taken up in one tenth of the original volume of water.

[1] = system: cardiac infarction following ligation of the left coronary artery; test: Coronary artery ligation in rats: cardiac infarction size and total mortality; format: in vivo, rat (Wistar); settings: for Total mortality % / Infarction size, % of total heart: peroral; for reduction of infarction size: treatment after coronary ligature
Excerpt: Ligation of the left coronary artery of the rat heart and the disorders in cardiac rhythm which thereby occur form a relatively simple model for investigating substances having antiarrhythmic actions and effects on the developing myocardial ischaemia (Clark et al., J. Pharmacol. Meth. 3, 357, 1980). The effects of nafazatrom on antiarrhythmic and antiischaemic properties in conscious rats was investigated in this model. Particular importance was placed on the severity and quantity of disorders in cardiac rhythm which occurred.
Male Wistar rats (250-350 g) were superficially anaesthetized with ether and investigated for rhythm disorders. Animals with rhythm abnormalities before the start of the experiment were excluded. In acute surgery, the animals were again anaesthetized with ether. In the lateral dorsal position, the thorax was opened somewhat to the left alongside the central line and the heart was exteriorized. Close below the left heart auricle, a silk ligature (3-0) was looped through the muscle of the left heart under the anterior coronary artery. Animals which developed rhythm disorders during this procedure were excluded. The left coronary artery was ligatured by the method described by Selye et al. (Angiology 11, 398, 1960), the heart was returned to the thorax and the wound was rapidly closed with thread. Since the thorax had not been opened for longer than about 45 seconds, artificial respiration of the animals was unnecessary. The operation mortality was between 25 and 40% within the first hours, and in particular myocardial haemorrhages, rhythm disorders with ventricular fibrillation, and massive cardiac infractions occurred. In a sham-operatedgroup, the same experimental conditions were investigated, with the exception that the coronary artery remained open. Shortly after the ligature had been made, early rhythm disorders were observed, which were accompanied in some cases (untreated) with ventricular fibrillations. In most cases, this ventricular fibrillation spontaneously turned into uniform sinus rhythm of heart contraction. The disorders in cardiac rhythm were evaluated by the plan described by Clark (see above). Ventricular tachycardia was defined as the result of more than 10 successive rhythm disorders with extrasystoles. Electrocardiographic changes included a rise in the ST segment, a drop in the Q waves and a rise in the QT interval. The total number of ectopic activity in each individual animal was determined by counting the ventricular extrasystoles, including tachycardia and fibrillations.
Three groups were investigated: group I received the diluent (1% strength aqueous Tylose suspension, that is to say methylhydroxyethyl-cellulose) twice daily perorally (0.5 ml/kg) for 10 days and by the same administration and in the same amount, after coronary ligature, for a further 20 days; group II was pretreated with the diluent for 10 days (0.5 ml/kg) and was treated with 30 or 100 mg/kg of nafazatrom (in each case suspended in 0.5 ml/kg of 1% strength Tylose suspension) twice daily perorally for 20 days, after coronary ligature (the first nafazatrom administration was effected immediately after the coronary ligature); group III received the above oral doses of nafazatrom in the course of 10 days before the ligature, and the diluent Tylose suspension for 10 days after the coronary occlusion had been effected. The sham-operated animals remained untreated. The peripheral ECG in the extremities was determined in lead II, and in particular, as a control before the start of treatment, shortly before and during coronary ligature, 10 minutes after coronary ligature had been effected, and--after renewed ether anaesthesia-- between the 2nd and 4th hour after coronary occlusion. Each time, the animals were superficially anaesthetized again with ether when the ECG was recorded. At the end of the treatment period, a last ECG was recorded shortly before the animals were sacrificed. […]

[2] = system: prostacyclin (PGI2) from the vascular endothelium; settings: Vermylen et al., Chamone et al., McIntyre and Salzman; cited from earlier work

Structure (SMILES): CC1=NN(CCOc2ccc3ccccc3c2)C(=O)C1 [nafazatrom, 3-methyl-1-[2-(2-naphthyloxy)-ethyl]-2-pyrazolin-5-one]
- inhibition of 5-lipoxygenase (5-lipoxygenase): selectively inhibits
- inhibition of 12-lipoxygenase (12-lipoxygenase): not inhibited
- Perfusion pressure in % of the blank value, 3rd phase (rabbit hearts; as 2nd phase, 1.10^-5 g/ml of nafazatrom, 5 minutes): 80%
- Perfusion pressure in % of the blank value, 5th phase (rabbit hearts; as 3rd phase (reoxygenation), 1.10^-5 g/ml): 75%
- Perfusion pressure in % of the blank value, 4th phase (rabbit hearts; as 3rd phase, 2% of O2 (hypoxia), 10 minutes, 1.10^-5 g/ml): 63%
- rise in perfusion pressure caused by addition of platelets (rabbit hearts; first and second carbogen phase): significantly inhibits
- Perfusion pressure in % of the blank value, 2nd phase (rabbit hearts; normoxia, carbogen, 1.10^7 platelets/ml, 5 minutes, before addition of nafazatrom): 139%
- Perfusion pressure in % of the blank value, 1st phase (rabbit hearts; preliminary phase, carbogen, before addition of nafazatrom): 100%
- total mortality ([1]; after-treated with 30 mg/kg): 22%
- total mortality ([1]; after-treated with 100 mg/kg): 12%
- infarctions in comparison with the control animals treated only with Tylose ([1]; both groups (before or after coronary ligature)): significantly smaller
- Total mortality % ([1]; group II, after-treatment 30 mg/kg, 2 × daily, 20 days): 24%
- Infarction size, % of total heart ([1]; group II, after-treatment 30 mg/kg, 2 × daily, 20 days, 15 animals): 31.5%
- Total mortality % ([1]; group II, after-treatment 100 mg/kg, 2 × daily, 20 days): 22%
- Infarction size, % of total heart ([1]; group II, after-treatment 100 mg/kg, 2 × daily, 20 days, 18 animals): 26.7%
- Total mortality % ([1]; group III, pre-treatment 30 mg/kg, 10 days): 22%
- Infarction size, % of total heart ([1]; group III, pre-treatment 30 mg/kg, 10 days, 12 animals): 28.0%
- Total mortality % ([1]; group III, pre-treatment 100 mg/kg, 10 days): 12%
- Infarction size, % of total heart ([1]; group III, pre-treatment 100 mg/kg, 10 days, 16 animals): 22.7%
- reduction of infarction ([1]; pre-treatment 30 mg/kg): 36%
- reduction of infarction ([1]; pre-treatment 100 mg/kg): 48%
- reduction of infarction size ([1]; 30 mg/kg): 28%
- reduction of infarction size ([1]; 100 mg/kg): 39%
- stimulation of endogenous prostacyclin (PGI2) [2]: stimulator of endogenous prostacyclin (PGI2)
